Measurements: ChEMBL document CHEMBL1201862, “PubChem BioAssay data set” (2004)
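Grown in 96-well plates, cells were treated for 48 hours with each compound at five concentrations. Insufficient inhibition: endpoint recorded as highest concentration tested. GI50 = concentration required for 50% inhibition of growth.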 Active and inactive are the calls of the source. No stated cut-off is given here; in the data, active = GI50 up to about 1.1 µM and inactive = higher.

How the values were obtained:
Experiment in all cases: growth of human tumour cells (NCI), 48 h
[1] = test system: 786-0
[2] = test system: MDA-N
[3] = test system: A498
[4] = test system: SK-MEL-2
[5] = test system: HCT-116
[6] = test system: NCI/ADR-RES
[7] = test system: HCC 2998
[8] = test system: Hs-578T
[9] = test system: SNB-75
[10] = test system: RXF 393
[11] = test system: TK-10
[12] = test system: UO-31
[13] = test system: SW-620
[14] = test system: OVCAR-5
[15] = test system: UACC-257
[16] = test system: COLO 205
[17] = test system: NCI-H226
[18] = test system: DU-145
[19] = test system: M14
[20] = test system: HL-60

Row | SMILES | GI50 [1] | GI50 [2] | GI50 [3] | GI50 [4] | GI50 [5] | GI50 [6] | GI50 [7] | GI50 [8] | GI50 [9] | GI50 [10] | GI50 [11] | GI50 [12] | GI50 [13] | GI50 [14] | GI50 [15] | GI50 [16] | GI50 [17] | GI50 [18] | GI50 [19] | GI50 [20]
1 | CCOC(=O)C1C(=O)CC(C)(O)C(C(=O)OCC)C1c1ccc(OC)cc1 (stereo not given) | > 100 µM (inactive) | > 100 µM (inactive) | > 100 µM (inactive) | > 100 µM (inactive) | > 100 µM (inactive) | > 100 µM (inactive) | > 100 µM (inactive) | > 100 µM (inactive) | > 100 µM (inactive) | > 100 µM (inactive) | > 100 µM (inactive) | > 100 µM (inactive) | > 100 µM (inactive) | > 100 µM (inactive) | > 100 µM (inactive) | > 100 µM (inactive) | 1.6 µM (inactive) | > 100 µM (inactive) | > 100 µM (inactive) | > 100 µM (inactive)
2 | COc1cc2cc(C(=O)N3CC(CCl)c4c3cc([N+](C)(C)Cc3ccc([N+](=O)[O-])n3C)c3ccccc43)[nH]c2c(OC)c1OC (stereo not given) | 1.33 µM (inactive) | 2.13 µM (inactive) | 0.153 µM (active) | 0.374 µM (active) | 1.48 µM (inactive) | 0.849 µM (active) | 0.3 µM (active) | 6.76 µM (inactive) | 2.35 µM (inactive) | 0.0107 µM (active) | 2.67 µM (inactive) | 1.17 µM (inactive) | 1.69 µM (inactive) | 6.05 µM (inactive) | 2.06 µM (inactive) | 0.989 µM (active) | 1.87 µM (inactive) | 0.935 µM (active) | 3.61 µM (inactive) | 1.15 µM (inactive)
3 | O=C1c2ccccc2CN1c1ccc(OCCN2CCCCC2)cc1 | > 10 µM (inactive) | > 10 µM (inactive) | > 10 µM (inactive) | > 10 µM (inactive) | > 10 µM (inactive) | > 10 µM (inactive) | > 10 µM (inactive) | > 10 µM (inactive) | > 10 µM (inactive) | > 10 µM (inactive) | > 10 µM (inactive) | > 10 µM (inactive) | > 10 µM (inactive) | > 10 µM (inactive) | > 10 µM (inactive) | > 10 µM (inactive) | > 10 µM (inactive) | > 10 µM (inactive) | > 10 µM (inactive) | > 10 µM (inactive)
4 | N/C(=N\O)NCCN1CCCCCCC1 | > 100 µM (inactive) | > 100 µM (inactive) | > 100 µM (inactive) | > 100 µM (inactive) | 12.1 µM (inactive) | > 100 µM (inactive) | > 100 µM (inactive) | > 100 µM (inactive) | > 100 µM (inactive) | > 100 µM (inactive) | > 100 µM (inactive) | > 100 µM (inactive) | > 100 µM (inactive) | > 100 µM (inactive) | > 100 µM (inactive) | > 100 µM (inactive) | > 100 µM (inactive) | > 100 µM (inactive) | > 100 µM (inactive) | > 100 µM (inactive)
5 | COc1cc2cc(C(=O)N3CC(CCl)c4ccccc43)[nH]c2c(OC)c1OC (stereo not given) | 97.5 µM (inactive) | 40.5 µM (inactive) | 18.2 µM (inactive) | 62.5 µM (inactive) | 67.9 µM (inactive) | 34.8 µM (inactive) | 17.2 µM (inactive) | > 100 µM (inactive) | > 92.5 µM (inactive) | > 100 µM (inactive) | > 100 µM (inactive) | 47.4 µM (inactive) | 60.1 µM (inactive) | > 100 µM (inactive) | 99.3 µM (inactive) | 33.8 µM (inactive) | > 100 µM (inactive) | 62.1 µM (inactive) | 62.5 µM (inactive) | 16.3 µM (inactive)
6 | C=C1CC2(OC1=O)c1ccccc1C=Cc1ccccc12 | 2.86 µM (inactive) | 1.96 µM (inactive) | 8.24 µM (inactive) | 8.65 µM (inactive) | 1.73 µM (inactive) | 1.64 µM (inactive) | 6.95 µM (inactive) | 2.51 µM (inactive) | 9.18 µM (inactive) | 3.19 µM (inactive) | 5.86 µM (inactive) | 8.3 µM (inactive) | 1.5 µM (inactive) | 9.31 µM (inactive) | 5.14 µM (inactive) | 2.3 µM (inactive) | 5.08 µM (inactive) | 11.5 µM (inactive) | 4.25 µM (inactive) | 0.661 µM (active)
